Measured values: publication PMC8986778, “Citrullination of glucokinase is linked to autoimmune diabetes” (Nature Communications, 2022)

Key:
glucokinase = conditions: randomized, double-blind and placebo-controlled study; cited from earlier work
From the text: As mentioned above, ATP-dependent GK converts glucose to glucose-6-phosphate, the critical step in glucose metabolism. Alternative splicing of the GK gene results in three tissue-specific isoforms, isoform 1 (pancreas) and isoforms 2 and 3 (liver). The only difference among three GK isoforms is in the amino acid sequence of exon 1 in the first fifteen amino acids of human pancreatic glucokinase. Unlike other hexokinases, GK is not regulated by feedback inhibition by glucose-6-phosphate. Therefore, GK can constitutively trigger insulin secretion in pancreatic β-cells under high glucose cond ...

[1] = test system: recombinant human pancreatic glucokinase; experiment: Catalytic activity of recombinant human pancreatic glucokinase (G6PDH coupled assay); type: biochemical; design: catalytic activity: unit not given beside the values; conditions: for catalytic activity: source data sheet Fig 5c; for Vmax / Km: steady-state kinetics at 37 °C, Michaelis-Menten fit; for Vmax: glucose 0–50 mM; for Km: substrate glucose 0–50 mM
Method: For in vitro citrullination, 0.1U of rabbit peptidylarginine deiminase (PADI2; Sigma–Aldrich) were added to 50 µg of recombinant human pancreatic glucokinase (rhGK; LS-G3456, LSBio) in reaction buffer (0.1 M Tris-HCl, 10 mM CaCl2 and 5 mM DTT) at 37 °C for 2.5 hrs and kept at -80 °C in multiple aliquots to avoid freeze and thaw until used. Minimum 6 µg of rhGK and PAD-treated-rhGK were reduced, alkylated and tryptic digested for LS-MS/MS analysis. Data were collected on a QE-Plus mass spectrometer coupled to a NanoACQUITY UPLC (Waters Inc.). A Waters Symmetry® C18 180 μm × 20 mm trap column and a 1.7-μm, 75 μm × 250 mm nanoACQUITY UPLC column (35 °C) was utilized for the separation. Collected LC–MS/MS data were processed using Proteome Discoverer Software (v. 2.2, Thermo Fisher Scientific) and searched were carried out in MASCOT Search Engine (Matrix Science) using the below parameters; oxidation (M), deamidated (N/Q) and citrullination (R) as the variable modifications and carbamidomethylation (C) as a fixed modification. Mascot results were loaded into Scaffold Q + S 4.11.0 and then Scaffold PTM 3.3.0 was used to re-analyze MS/MS spectra identified as citrulline modified peptides. Calculated Ascore values for citrullinated peptides containing the neutral loss of isocyanic acid (−43 Da)[54] indicate the level of site localization probabilities to assess the level of confidence in each citrullination PTM localization. Scaffold PTM then combines localization probabilities for all peptides containing each identified PTM site to obtain the best estimated probability that a PTM is present at that particular site. Manual MS/MS inspection of the modified peptides were also carried out to ensure correct assignments/localizations of the citrullination sites (detailed MS/MS spectra are presented in Source Data-File 2 spreadsheet).
After in vitro citrullination by PAD as described above, recombinant human pancreatic glucokinase (rhGK; LS-G5486, LSBio) was put on the ice to stop the reaction for 5 min. Then glucokinase activity was measured spectrophotometrically (A340nm) at 37 °C by a glucose 6-phosphate dehydrogenase (G6PDH) coupled assay as described previously. In brief, 1 µg rhGK or PAD-treated rhGK was assayed in a reaction buffer containing 25 mM Hepes (pH7.3), 2 mM MgCl2, 1 mM DTT, 0.5 mM NADP, 2 mM ATP, 0.01%BSA, 20U/ml G6PDH and 25 mM D-( + )-glucose. Relative specific activity of glucokinase was calculated from linear regression of the change in A340nm. To determine the steady-state kinetic properties of both rhGK and PAD-treated rhGK, varying concentrations of D-( + )-glucose (0–50 mM) were used. Vmax and Km were calculated by Michaelis-Menten equation using GraphPad Prism Software.

INS-1E cells [2] = experiment: Insulin secretion assay; type: cell-based, rat
Method: (§1) For insulin secretion assay, the INS-1E cells, a gift from Prof. Wollheim (CMU, Geneva, Switzerland)[53], were seeded on 6 well plate and cultured with recombinant mouse IFNγ (100 units/mL; R&D Systems) and recombinant human IL-1β (5 units/mL; R&D Systems) in the presence or absence of PAD2/PAD4 inhibitor (5 µM YW3-56; Cayman) for 48 hrs. Cells were washed and starved for 1 hr in low-glucose KREBS buffer (138 mM NaCl, 4.7 mM KCl, 1 mM CaCl2, 1.18 mM KH2PO4, 1.18 mM MgSO4, 5 mM NaHCO3, 25 mM Hepes (pH7.4), 0.1% BSA and 2.5 mM glucose). Assay buffer was then replaced with KREBS buffer containing either varying glucose concentration (2.5, 5, 9 and 16.7 mM), 10 mM sodium pyruvate or 30 mM KCl. After another 1 hr incubation, supernatants were collected and assayed for insulin by using Rat High Range Insulin ELISA kit (ALPCP) according to manufacturer’s protocol and analyzed using Microsoft excel Software. All experiments were performed using INS-1E cells between the 61st and 65th passage.

INS-1E cells [3] = experiment: Protein citrullination immunoblot (anti-modified citrulline); type: cell-based, rat; conditions: IFNγ 100U/ml plus IL-1β 5U/ml, 5 µM YW3-56, 48 hrs
From the text: Presence of citrullinated protein was detected by using anti-citrulline (Abcam, ab6464) for immunohistochemistry as described elsewhere, by using anti-peptidyl-citrulline, clone F95 (Millipore, MABN328) for flow cytometry and confocal microscopy and by using anti-modified citrulline detection kit, clone C4 (Millipore, 17-347B) for immunoblot according to manufacturer’s protocol. The specificity and sensitivity of the above commercial antibodies for the detection of protein citrullination were described previously[47],[48] and in our recent reports[9],[51],[52].
as §1, with “Assay buffer was then replaced with KREBS buffer containing either varying glucose concentration (2.5, 5, 9 and 16.7 mM), 10 mM sodium pyruvate or 30 mM KCl.” left out, “All experiments were performed using INS-1E cells between the 61st and 65th passage.” left out

PAD4 = conditions: pan-PAD inhibitor; no reference printed (compound from Cayman); cited from earlier work
Method: Proinflammatory cytokines are known to attenuate glucose stimulated insulin secretion (GSIS), mediated by glucokinase, as studied elsewhere[29]–[31]. We utilized a subclonal cell line from the parenteral INS-1 cells, INS-1E, to examine GSIS and how citrullination may alter the glucose sensing/insulin secreting metabolic pathway. We also utilized YW3-56, a pan-PAD inhibitor (IC50: […] and 1–5 µM for PAD2 and PAD4, respectively), in studies of GSIS in INS-1E cells as a means of blocking protein citrullination. First, we confirmed by immunoblot detection of citrulline that IFNγ+ IL-1β cytoki ...

[4] = 25 mM glucose, 1 µg protein, replicate 1
[5] = 25 mM glucose, 1 µg protein, replicate 2

## CCCO[C@H]1CC[C@H](N(C(=O)Nc2ncc(SCC(=O)O)s2)C2CCCCC2)CC1 [TTP399]
glucokinase
  clinical effect in patients with T1D: lower HbA1C and reduce hypoglycemia without increasing the risk of ketosis

## PAD-treated rhGK: rhGK citrullinated in vitro by rabbit peptidylarginine deiminase (PADI2)
[1]; 25 mM glucose, 1 µg protein, versus native rhGK
  reduction of catalytic activity by citrullination: 20%
[1]; [4]
  catalytic activity: 56.53
[1]; [5]
  catalytic activity: 60.82
[1]
  Vmax: 119.9 ± 7.7 µmol/mg/min
  Km: 16.2 ± 2.3 mM

## rhGK: Recombinant human pancreatic glucokinase
[1]; [4]
  catalytic activity: 72.34
[1]; [5]
  catalytic activity: 76.63
[1]
  Vmax: 115.1 ± 10.5 µmol/mg/min
  Km: 8.48 ± 2.1 mM

## YW3-56
INS-1E cells [2]; 5 µM YW3-56 without cytokines, 48 hrs
  citrullination levels or GSIS, inhibitor alone: did not affect
INS-1E cells [2]; 10 mM sodium pyruvate, 5 µM YW3-56 with cytokines 48 h
  cytokine-mediated suppression of insulin secretion upon pyruvate stimulation: able to correct
INS-1E cells [2]; 16.7 mM glucose, YW3-56 cocultured with cytokines for 48 h
  IFNγ + IL-1β suppressed GSIS: partially correct
INS-1E cells [2]; 30 mM KCl, cytokines in the presence or absence of YW3-56
  insulin secretion to depolarization with KCL: not affected
INS-1E cells [2]; YW3-56 alone (no cytokine), glucose 2.5 (head prints nM), replicate 1
  insulin secretion: 20.6698
INS-1E cells [2]; YW3-56 alone, KCl, replicate 1
  insulin secretion: 216.859
INS-1E cells [2]; YW3-56 alone, KCl, replicate 2
  insulin secretion: 173.302
INS-1E cells [2]; YW3-56 alone, KCl, replicate 3
  insulin secretion: 216.475
INS-1E cells [2]; YW3-56 alone, glucose 2.5 (head prints nM), replicate 2
  insulin secretion: 24.1975
INS-1E cells [2]; YW3-56 alone, glucose 2.5 (head prints nM), replicate 3
  insulin secretion: 21.4049
INS-1E cells [2]; YW3-56 alone, glucose 5 (head prints nM), replicate 1
  insulin secretion: 75.1459
INS-1E cells [2]; YW3-56 alone, glucose 5 (head prints nM), replicate 2
  insulin secretion: 84.4819
INS-1E cells [2]; YW3-56 alone, glucose 5 (head prints nM), replicate 3
  insulin secretion: 61.4806
INS-1E cells [2]; YW3-56 alone, glucose 16.7 (head prints nM), replicate 1
  insulin secretion: 227.056
INS-1E cells [2]; YW3-56 alone, glucose 16.7 (head prints nM), replicate 2
  insulin secretion: 273.99
INS-1E cells [2]; YW3-56 alone, glucose 16.7 (head prints nM), replicate 3
  insulin secretion: 236.558
INS-1E cells [2]; YW3-56 alone, pyruvate, replicate 1
  insulin secretion: 292.452
INS-1E cells [2]; YW3-56 alone, pyruvate, replicate 2
  insulin secretion: 273.99
INS-1E cells [2]; YW3-56 alone, pyruvate, replicate 3
  insulin secretion: 273.99
INS-1E cells [2]; cytokine (IFNγ + IL-1β) + YW3-56 5 µM 48 hrs, 1 hr glucose 2.5 (head prints nM), replicate 1
  insulin secretion: 42.5356
INS-1E cells [2]; cytokine + YW3-56 48 hrs, KCl, replicate 1
  insulin secretion: 91.8746
INS-1E cells [2]; cytokine + YW3-56 48 hrs, KCl, replicate 2
  insulin secretion: 82.0356
INS-1E cells [2]; cytokine + YW3-56 48 hrs, KCl, replicate 3
  insulin secretion: 59.5376
INS-1E cells [2]; cytokine + YW3-56 48 hrs, glucose 2.5 (head prints nM), replicate 2
  insulin secretion: 26.9388
INS-1E cells [2]; cytokine + YW3-56 48 hrs, glucose 2.5 (head prints nM), replicate 3
  insulin secretion: 26.5034
INS-1E cells [2]; cytokine + YW3-56 48 hrs, glucose 5 (head prints nM), replicate 1
  insulin secretion: 38.7513
INS-1E cells [2]; cytokine + YW3-56 48 hrs, glucose 5 (head prints nM), replicate 2
  insulin secretion: 47.2935
INS-1E cells [2]; cytokine + YW3-56 48 hrs, glucose 5 (head prints nM), replicate 3
  insulin secretion: 37.2188
INS-1E cells [2]; cytokine + YW3-56 48 hrs, glucose 16.7 (head prints nM), replicate 1
  insulin secretion: 95.9987
INS-1E cells [2]; cytokine + YW3-56 48 hrs, glucose 16.7 (head prints nM), replicate 2
  insulin secretion: 101.342
INS-1E cells [2]; cytokine + YW3-56 48 hrs, glucose 16.7 (head prints nM), replicate 3
  insulin secretion: 93.7876
INS-1E cells [2]; cytokine + YW3-56 48 hrs, pyruvate, replicate 1
  insulin secretion: 78.6578
INS-1E cells [2]; cytokine + YW3-56 48 hrs, pyruvate, replicate 2
  insulin secretion: 90.7306
INS-1E cells [2]; cytokine + YW3-56 48 hrs, pyruvate, replicate 3
  insulin secretion: 140.964
INS-1E cells [3]
  IFNγ+ IL-1β cytokine-induced citrullination levels: reduced
PAD4
  IC50: 1 to 5 µM
